From patent US20240261274A1, “TREATMENT OF MYC-DRIVEN CANCERS WITH GSPT1 DEGRADERS” (MONTE ROSA THERAPEUTICS, INC., priority 2021, published 2024) come the findings set out here.

For data set [1], the system named is human cell line NCI-H1770 xenograft. The experiment in a line: N-Myc-driven mouse xenograft model, NCI-H1770, compound 210 oral. The format is in vivo.
Data set [2] addresses T1, GSPT1 (Homo sapiens, UniProt P15170+Q96SW2). The experiment in a line: GSPT1 levels in NCI-H1155 tumors by western blotting (compound 210). As to conditions: all three dose levels, 6 hours after the third dose. The arrangement: from tissue; host or cells: NCI-H1155 subcutaneous xenograft tumours from BALB/c nude mice. The format is in vivo, mice. The protocol:
GSPT1 levels in tumors were determined by western blotting 6 hours after the third dose. Western blotting was performed as described previously using GAPDH as loading control.

In data set [3] the target is T1, GSPT1. Briefly: GSPT1 degradation by Compound 345 in cancer cell lines (western blot). The class given is cell-based. The arrangement: endogenous in cells; host or cells: MM1 S (ATCC CRL-2974). Here is the method: NCI-H1155 and ABC-1 were taken as representative of N-Myc positive NSCLC. NCI-H2023 and NCI-H441 as of N-Myc low representatives. 10A: western blotting analysis performed after 6 (NCI-H1155 and ABC-1) or 24 hr (NCI-H2023 and NCI-H441) posttreatment. […] 10B: corresponding densitometry analyses of GSPT1 normalized to GAPDH. DC50 and Dmax as indicated.
NCI-H1155 and ABC-1 were taken as representative of N-Myc high NSCLC. NCI-H2023 and NCI-H441 as of N-Myc low representatives. Left: densitometry analysis of GSPT1 normalized to GAPDH from western blotting following treatment with Compound 345 (as indicated). Right: 72 hr viability assay following treatment with Compound 345 as assessed by Cell Titer Glo. For both the GSPT1 expression plot and the cell viability plot, two Myc-driven cancer cell lines are represented by upright triangles and diamonds. Two non-Myc-driven cancer cell lines are represented by upside down triangles and circles.
NCI-H1155 and NCI-H2023 were taken as representative of N-Myc high and low NSCLC. 12A: western blot analysis probing for GSPT1 and N-Myc following treatment with Compound 345 (as indicated). Tubulin was used as a loading control. N-Myc could not be detected by western blotting in the NCI-H2023 line. 12B: Single-sample gene set enrichment analysis (ssGSEA) results for a Myc target gene set at 6 hours (left) and 24 hours (right) after treatment. ssGSEA scores were normalized to DMSOs for each cell line and averaged for three replicates. Error bars denote+/−1 s.d. across replicates.
NCI-H1836 and NCI-H1876 were taken as two representatives of L-Myc high SCLC. Western blot analysis probing for GSPT1 and L-Myc following treatment with Compound 345 as indicated. GAPDH was used as a loading control.
FIGS. 16A, 16B and 16C: Activity of Compound 345 in the c-Myc high multiple myeloma MM1S cell line. […] GAPDH was used as a loading control. […] Lenalidomide was used as a benchmark. 16C: Antiproliferative activity of Compound 345 (as indicated) following treatment with Compound 345 for 72 hr as assessed by Cell Titer Glo assay.
FIGS. 18A, 18B and 18C: Activity of Compound 345 in the c-Myc high WSU-DLCL2 lymphoma cell line. […] GAPDH was used as a loading control. 18B: Antiproliferative activity of Compound 345 (as indicated) following treatment with Compound 345 for 72 hr as assessed by Cell Titer Glo assay. […] Mice were dosed daily PO with vehicle or Compound 345 at 3, 10 mg/kg (as indicated). Tumor volumes were measured twice weekly. X-axis represents the number of days for treatment duration; y-axis represents mean tumor volume (in mm^3)±SEM. CHOP was used as a positive control for this model. Drug-free vehicle is represented by black circles; CHOP combination represented by light squares; Compound 345 3 mg/kg represented by triangles; Compound 345 10 mg/kg represented by dark squares.
FIGS. 19A, 19B, and 19C: Activity of Compound 345 in the c-Myc high DOHH-2 lymphoma cell line. […] GAPDH was used as a loading control. 19B: Antiproliferative activity of Compound 345 (as indicated) following treatment with Compound 345 for 72 hr as assessed by Cell Titer Glo assay. […] Mice were dosed daily PO with vehicle or Compound 345 at 3, 10 mg/kg (as indicated). Tumor volumes were measured twice weekly. X-axis represents the number of days for treatment duration; y-axis represents mean tumor volume (in mm^3)±SEM. CHOP was used as a positive control for this model.
Western blot analysis performed 24 hr post treatment initiation. GAPDH was used as a loading control. GSPT1 DC50 and Dmax as indicated.
On the technique in general: A western blot detects proteins with antibodies after separation by electrophoresis.

The structures appear in SMILES notation.

T1 sequence (P15170 whole entry): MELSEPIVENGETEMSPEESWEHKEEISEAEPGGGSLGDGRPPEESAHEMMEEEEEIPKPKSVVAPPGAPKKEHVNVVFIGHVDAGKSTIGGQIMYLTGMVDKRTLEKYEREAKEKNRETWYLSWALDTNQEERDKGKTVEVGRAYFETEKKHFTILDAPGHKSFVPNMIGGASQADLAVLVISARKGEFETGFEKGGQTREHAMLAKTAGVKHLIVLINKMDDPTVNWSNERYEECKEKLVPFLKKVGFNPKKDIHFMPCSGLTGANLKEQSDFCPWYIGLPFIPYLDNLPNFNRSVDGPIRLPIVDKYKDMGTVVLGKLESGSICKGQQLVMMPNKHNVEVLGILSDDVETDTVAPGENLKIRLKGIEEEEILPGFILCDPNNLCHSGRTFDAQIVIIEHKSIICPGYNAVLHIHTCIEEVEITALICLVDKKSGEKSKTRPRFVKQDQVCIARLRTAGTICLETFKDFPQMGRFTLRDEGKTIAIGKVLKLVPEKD
T1 sequence (Q96SW2 whole entry): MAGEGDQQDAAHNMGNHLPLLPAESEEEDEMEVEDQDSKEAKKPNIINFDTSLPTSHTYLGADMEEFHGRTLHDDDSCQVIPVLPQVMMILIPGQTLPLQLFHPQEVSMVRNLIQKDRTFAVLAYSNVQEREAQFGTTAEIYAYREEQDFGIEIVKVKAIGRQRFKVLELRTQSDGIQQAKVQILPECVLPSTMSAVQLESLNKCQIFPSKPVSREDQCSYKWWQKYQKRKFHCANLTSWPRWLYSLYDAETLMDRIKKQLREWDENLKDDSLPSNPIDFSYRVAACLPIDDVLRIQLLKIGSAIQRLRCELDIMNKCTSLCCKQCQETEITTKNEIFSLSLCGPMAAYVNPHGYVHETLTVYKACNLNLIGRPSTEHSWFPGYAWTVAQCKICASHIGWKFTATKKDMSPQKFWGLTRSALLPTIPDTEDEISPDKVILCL
T1 sequence (Q16531 whole entry partner): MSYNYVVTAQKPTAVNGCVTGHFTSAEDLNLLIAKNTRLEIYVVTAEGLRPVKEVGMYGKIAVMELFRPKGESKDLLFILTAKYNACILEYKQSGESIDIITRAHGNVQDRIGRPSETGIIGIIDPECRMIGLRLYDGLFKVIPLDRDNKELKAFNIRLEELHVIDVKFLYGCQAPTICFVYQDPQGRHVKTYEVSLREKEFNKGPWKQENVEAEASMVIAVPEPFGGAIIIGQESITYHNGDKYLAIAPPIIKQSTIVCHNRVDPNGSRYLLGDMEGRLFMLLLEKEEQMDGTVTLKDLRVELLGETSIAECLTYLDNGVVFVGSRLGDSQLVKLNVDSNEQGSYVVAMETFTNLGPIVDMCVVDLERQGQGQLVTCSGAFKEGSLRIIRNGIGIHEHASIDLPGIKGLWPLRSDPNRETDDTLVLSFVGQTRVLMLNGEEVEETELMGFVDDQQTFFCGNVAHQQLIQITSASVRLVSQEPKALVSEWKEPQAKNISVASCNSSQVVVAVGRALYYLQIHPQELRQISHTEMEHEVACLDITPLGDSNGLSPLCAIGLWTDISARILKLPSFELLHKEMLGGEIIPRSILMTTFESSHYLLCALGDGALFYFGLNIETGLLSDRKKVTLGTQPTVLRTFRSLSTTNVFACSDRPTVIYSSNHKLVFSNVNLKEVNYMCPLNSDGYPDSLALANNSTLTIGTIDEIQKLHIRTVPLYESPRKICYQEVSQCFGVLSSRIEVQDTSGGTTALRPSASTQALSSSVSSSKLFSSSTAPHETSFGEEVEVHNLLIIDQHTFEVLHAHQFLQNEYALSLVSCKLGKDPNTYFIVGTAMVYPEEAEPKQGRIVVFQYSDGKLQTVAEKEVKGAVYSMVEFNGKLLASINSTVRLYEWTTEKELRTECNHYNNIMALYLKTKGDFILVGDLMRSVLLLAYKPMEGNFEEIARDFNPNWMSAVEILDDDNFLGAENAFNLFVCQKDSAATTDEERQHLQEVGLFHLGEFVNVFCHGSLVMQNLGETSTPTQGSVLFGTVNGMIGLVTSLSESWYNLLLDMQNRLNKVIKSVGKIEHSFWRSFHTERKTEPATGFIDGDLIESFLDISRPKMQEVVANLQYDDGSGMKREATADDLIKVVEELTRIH

As for `Cc1ccc(NC(=O)OCc2ccc3c(c2)C(=O)N(C2CCC(=O)NC2=O)C3)cc1Cl` (centres unmarked) [Compound 210], the tumor size entry in data set [1] (3 mg/kg once daily) was “tumor size decreased and remained so until the end of the study”. In addition, in data set [1] (6 mg/kg, five days on and nine days off), the tumor size entry was “tumor size decreased and remained so until the end of the study”. For the same compound, in data set [1] (oral administration), the body weight entry is “no body weight loss observed” and the tumor growth result is on record as “tumor growth inhibition”. Besides, on GSPT1 [2], the “GSPT1 degradation in tumors” value was “Complete degradation of GSPT1”.
`O=C1CCC(N2Cc3ccc(COC(=O)Nc4cc(OC(F)(F)F)ccc4F)cc3C2=O)C(=O)N1` (centres unmarked) [Compound 345, (2-(2,6-dioxopiperidin-3-yl)-3-oxoisoindolin-5-yl)methyl(2-fluoro-5-(trifluoromethoxy)phenyl)carbamate]: the GSPT1 level entry on GSPT1 [3] (DOHH-2 lymphoma cell line, 24 hr post treatment) was “Degradation of GSPT1”; on GSPT1 [3] (MM1S multiple myeloma cell line, 24 hr post treatment), “Degradation of GSPT1”; at GSPT1 [3] (NSCLC lines NCI-H1155, ABC-1 (6 hr), NCI-H2023, NCI-H441 (24 hr)), “Induced-degradation of GSPT1”; at GSPT1 [3] (WSU-DLCL2 lymphoma cell line, 24 hr post treatment) it was “Degradation of GSPT1”. Further, the “GSPT1 level, timecourse” value on GSPT1 [3] (NSCLC lines NCI-H1155 and NCI-H2023) is listed as “degradation of GSPT1”; at GSPT1 [3] (SCLC lines NCI-H1836 and NCI-H1876 (L-Myc high)), “degradation of GSPT1”.
